Measured values reported in US8492329B2, “Bioactive peptides and methods of using same” (Compugen Ltd., priority 2007, dated 2013).
Entries after “also recorded” stand apart in the source; their conditions may differ. No end group written: not given here.

Biological target: T1, LGR6 (Homo sapiens, UniProt Q9HBX8)
T1 construct: expressed in transfected cells; host or cells: CHO-K1 (transient)
T1 sequence (Q9HBX8 25-967): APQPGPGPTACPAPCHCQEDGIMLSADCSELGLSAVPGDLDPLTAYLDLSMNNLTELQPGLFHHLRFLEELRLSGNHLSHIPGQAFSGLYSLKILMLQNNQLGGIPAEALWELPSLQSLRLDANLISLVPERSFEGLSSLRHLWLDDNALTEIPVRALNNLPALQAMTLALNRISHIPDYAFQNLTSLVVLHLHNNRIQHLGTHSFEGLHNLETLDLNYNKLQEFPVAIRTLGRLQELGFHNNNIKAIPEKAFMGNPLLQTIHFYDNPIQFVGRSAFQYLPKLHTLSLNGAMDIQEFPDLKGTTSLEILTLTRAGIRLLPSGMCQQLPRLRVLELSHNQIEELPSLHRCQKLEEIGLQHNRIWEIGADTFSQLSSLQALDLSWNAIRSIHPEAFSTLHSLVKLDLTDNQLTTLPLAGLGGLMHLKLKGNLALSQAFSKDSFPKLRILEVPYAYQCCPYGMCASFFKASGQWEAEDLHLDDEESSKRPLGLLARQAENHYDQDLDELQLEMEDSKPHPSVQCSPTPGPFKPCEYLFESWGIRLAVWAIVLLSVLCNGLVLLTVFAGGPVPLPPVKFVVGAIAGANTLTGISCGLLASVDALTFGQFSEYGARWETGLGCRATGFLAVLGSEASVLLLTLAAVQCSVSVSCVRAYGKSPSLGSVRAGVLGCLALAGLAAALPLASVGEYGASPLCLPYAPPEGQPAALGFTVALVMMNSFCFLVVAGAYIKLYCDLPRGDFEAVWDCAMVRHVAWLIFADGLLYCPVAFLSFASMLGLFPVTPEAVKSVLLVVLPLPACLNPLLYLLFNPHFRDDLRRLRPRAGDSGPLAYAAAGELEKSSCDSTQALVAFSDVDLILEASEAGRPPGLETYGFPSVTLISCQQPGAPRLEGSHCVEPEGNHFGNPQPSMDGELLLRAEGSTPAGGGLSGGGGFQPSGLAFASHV
Experiment: cAMP accumulation in CHO-K1 cells transiently transfected with LGR6
Type: cell-based
Conditions: 1 uM, without Forskolin, FIG. 3A
Method: [The procedure below names another target; the source says it served here with some conditions changed.] LGR7 (RXFP1) or LGR8 (RXFP2) were transiently transfected into CHO-K1 cells as follows: Cells (12 million) were plated into T75 flasks on the day preceding transfection. Cells were transfected with a GPCR DNA and Gα16 using a lipid technique according to the manufacturer's recommendation. Cells were transfected for 5 hours, then re-plated into 96-well dishes (60,000 cells per well) and grown overnight. Transfected cells were plated into 24 wells of a 96-well plate. Cells were pre-treated with 0.5 mM IBMX (stimulation buffer) for 10 min at 37° C., then stimulated with either a positive control (Relaxin 2) or a candidate peptide (for Gs functional examination), followed by stimulation or a preincubation with 10 μM forskolin (for Gi functional examination). Following a 20 minutes stimulation by incubation with 1 μM of either positive control or the tested peptides, either with or without forskolin, intracellular cAMP was assayed using the Hit Hunter cAMP kit (DiscoveRx Corporation) according to the manufacturer's recommended protocol. Data was converted to nmol of cAMP by running a standard cAMP curve.

GQKGQVGPPGAAVRRAYAAFSVGRRAYAAFSV-OH [Peptide P74C13V]
Gs activation (cAMP accumulation): significant increase in cAMP accumulation; also recorded: slight Gs activation
